Source: patent US9593122B2, “Substituted pyrazolylpyrazole derivative and use of same as herbicide” (KYOYU AGRI CO., LTD., priority 2013, dated 2017)

Legend:
Format in all cases: in vivo
[1] = system: Echinochloa crus-galli; test: Paddy herbicidal activity test; details: irrigated paddy pot, treated at 3.5 leaf stage of Echinochloa crus-galli, 30 days
Protocol: (§1) Rice paddy soil was filled into a 1/10000 are pot followed by the addition of suitable amounts of water and chemical fertilizer, kneading, seeding with Echinochloa crus-galli, Monochoria vaginalis and Scirpus juncoides and maintaining in an irrigated state at a water depth of 3 cm.
(§2) Wettable powder of Target Compound (I) shown in Table 1 prepared in compliance with the preparation examples were diluted with a suitable amount of water, rice plants in the 2.0 leaf stage were transplanted during 3.5 leaf stage of Echinochloa crus-galli, and treated by dropping in chemical in the prescribed amount per are using a pipette.
(§3) After treating for 30 days in a glass greenhouse at an average atmospheric temperature of 30° C., the herbicidal efficacy thereof was investigated.
(§4) Evaluation of herbicidal efficacy was carried out by comparing growth inhibition rate (%) with an untreated group, while evaluation of phytotoxicity was carried out by comparing growth inhibition rate (%) with the state of a complete eradication group, and were evaluated at 11 levels indicated below.

[2] = system: Monochoria vaginalis; test: Paddy herbicidal activity test; details: irrigated paddy pot, 30 days
Protocol: as §1, §2, §3, §4

[3] = system: Scirpus juncoides; test: Paddy herbicidal activity test; details: irrigated paddy pot, 30 days
Protocol: as §1, §2, §3, §4

[4] = system: Rice plants; test: Paddy herbicidal activity test, phytotoxicity to transplanted rice; details: rice transplanted at 2.0 leaf stage, 30 days
Protocol: as §1, §2, §3, §4

[5] = system: Amaranthus retroflexus; test: Farming soil treatment test; details: soil surface spray prior to weed growth, 30 days
Protocol: (§5) Field soil was filled into a 1/6000 are pot followed by seeding with Digitaria ciliaris, Chenopodium album and Amaranthus retroflexus and covering with soil.
(§6) Wettable powder of compounds of formula (I) shown in Table 1 prepared in compliance with the preparation examples were diluted with water to the prescribed amount of chemical and uniformly sprayed onto each soil surface layer using 10 liters of sprayed water per are prior to weed growth following seeding.
as §3
(§7) Evaluation of herbicidal efficacy is carried out in the same manner as the above-mentioned Test Example 1.

[6] = system: Chenopodium album; test: Farming soil treatment test; details: soil surface spray prior to weed growth, 30 days
Protocol: as §5, §6, §3, §7

[7] = system: Digitaria ciliaris; test: Farming soil treatment test; details: soil surface spray prior to weed growth, 30 days
Protocol: as §5, §6, §3, §7

[8] = system: Amaranthus retroflexus; test: Weed foliar treatment test; details: foliar spray, 3 weeks
Protocol: (§8) Soil was filled into a 1/6000 are pot followed by seeding with Digitaria ciliaris, Chenopodium album and Amaranthus retroflexus, covering with soil, and cultivating in a glass greenhouse at an average atmospheric temperature of 25° C.
(§9) Wettable powder of Target Compound (I) shown in Table 1 prepared in compliance with the preparation examples were diluted with water to the prescribed amount of chemical and uniformly sprayed onto the weeds using 15 liters of sprayed water per are when Digitaria ciliaris had grown to the 1.0 to 2.0 leaf stage.
(§10) After treating for 3 weeks in a glass greenhouse at an average atmospheric temperature of 25° C., the herbicidal efficacy thereof was investigated.
(§11) Evaluation of herbicidal efficacy was carried out in the same manner as the above-mentioned Test Example 1.

[9] = system: Chenopodium album; test: Weed foliar treatment test; details: foliar spray, 3 weeks
Protocol: as §8, §9, §10, §11

[10] = system: Digitaria ciliaris; test: Weed foliar treatment test; details: foliar spray at 1.0 to 2.0 leaf stage of Digitaria ciliaris, 3 weeks
Protocol: as §8, §9, §10, §11

C#CCN(C(=O)C(F)(F)F)c1c(C#N)cnn1-c1nn2c(c1Cl)CCCC2 [Control agent 4.239, reference compound]
Echinochloa crus-galli herbicidal efficacy (growth inhibition level) ([1]; 1g a.i./10a): 3 (3: 30% to less than 40%) | Echinochloa crus-galli herbicidal efficacy (growth inhibition level) ([1]; 5g a.i./10a): 5 (5: 50% to less than 60%) | Monochoria vaginalis herbicidal efficacy (growth inhibition level) ([2]; 1g a.i./10a): 1 (1: 10% to less than 20%) | Monochoria vaginalis herbicidal efficacy (growth inhibition level) ([2]; 5g a.i./10a): 2 (2: 20% to less than 30%) | Scirpus juncoides herbicidal efficacy (growth inhibition level) ([3]; 1g a.i./10a): 0 (0 (exponent): 0% to less than 10% (growth inhibition rate)) | Scirpus juncoides herbicidal efficacy (growth inhibition level) ([3]; 5g a.i./10a): 1 (1: 10% to less than 20%) | Rice plants phytotoxicity (growth inhibition level) ([4]; 1g a.i./10a): 0 (0 (exponent): 0% to less than 10% (growth inhibition rate)) | Rice plants phytotoxicity (growth inhibition level) ([4]; 5g a.i./10a): 1 (1: 10% to less than 20%) | Amaranthus retroflexus herbicidal efficacy (growth inhibition level) ([5]; 5g a.i./10a): 3 (3: 30% to less than 40%) | Amaranthus retroflexus herbicidal efficacy (growth inhibition level) ([5]; 10g a.i./10a): 5 (5: 50% to less than 60%) | Chenopodium album herbicidal efficacy (growth inhibition level) ([6]; 5g a.i./10a): 2 (2: 20% to less than 30%) | Chenopodium album herbicidal efficacy (growth inhibition level) ([6]; 10g a.i./10a): 3 (3: 30% to less than 40%) | Digitaria ciliaris herbicidal efficacy (growth inhibition level) ([7]; 5g a.i./10a): 4 (4: 40% to less than 50%) | Digitaria ciliaris herbicidal efficacy (growth inhibition level) ([7]; 10g a.i./10a): 5 (5: 50% to less than 60%) | Amaranthus retroflexus herbicidal efficacy (growth inhibition level) ([8]; 5g a.i./10a): 4 (4: 40% to less than 50%) | Amaranthus retroflexus herbicidal efficacy (growth inhibition level) ([8]; 10g a.i./10a): 6 (6: 60% to less than 70%) | Chenopodium album herbicidal efficacy (growth inhibition level) ([9]; 5g a.i./10a): 3 (3: 30% to less than 40%) | Chenopodium album herbicidal efficacy (growth inhibition level) ([9]; 10g a.i./10a): 4 (4: 40% to less than 50%) | Digitaria ciliaris herbicidal efficacy (growth inhibition level) ([10]; 5g a.i./10a): 3 (3: 30% to less than 40%) | Digitaria ciliaris herbicidal efficacy (growth inhibition level) ([10]; 10g a.i./10a): 5 (5: 50% to less than 60%)

C=C(Cl)CNc1c([N+](=O)[O-])cnn1-c1nn2c(c1Cl)CCCC2 [Compound 30]
Echinochloa crus-galli herbicidal efficacy (growth inhibition level) ([1]; 1g a.i./10a): 9 (9: 90% to less than 100%) | Echinochloa crus-galli herbicidal efficacy (growth inhibition level) ([1]; 5g a.i./10a): 10 (10: 100%) | Monochoria vaginalis herbicidal efficacy (growth inhibition level) ([2]; 1g a.i./10a): 9 (9: 90% to less than 100%) | Monochoria vaginalis herbicidal efficacy (growth inhibition level) ([2]; 5g a.i./10a): 10 (10: 100%) | Scirpus juncoides herbicidal efficacy (growth inhibition level) ([3]; 1g a.i./10a): 8 (8: 80% to less than 90%) | Scirpus juncoides herbicidal efficacy (growth inhibition level) ([3]; 5g a.i./10a): 10 (10: 100%) | Amaranthus retroflexus herbicidal efficacy (growth inhibition level) ([5]; 5g a.i./10a): 10 (10: 100%) | Amaranthus retroflexus herbicidal efficacy (growth inhibition level) ([5]; 10g a.i./10a): 10 (10: 100%) | Chenopodium album herbicidal efficacy (growth inhibition level) ([6]; 5g a.i./10a): 10 (10: 100%) | Chenopodium album herbicidal efficacy (growth inhibition level) ([6]; 10g a.i./10a): 10 (10: 100%) | Digitaria ciliaris herbicidal efficacy (growth inhibition level) ([7]; 5g a.i./10a): 10 (10: 100%) | Digitaria ciliaris herbicidal efficacy (growth inhibition level) ([7]; 10g a.i./10a): 10 (10: 100%) | Amaranthus retroflexus herbicidal efficacy (growth inhibition level) ([8]; 5g a.i./10a): 10 (10: 100%) | Amaranthus retroflexus herbicidal efficacy (growth inhibition level) ([8]; 10g a.i./10a): 10 (10: 100%) | Chenopodium album herbicidal efficacy (growth inhibition level) ([9]; 5g a.i./10a): 10 (10: 100%) | Chenopodium album herbicidal efficacy (growth inhibition level) ([9]; 10g a.i./10a): 10 (10: 100%) | Digitaria ciliaris herbicidal efficacy (growth inhibition level) ([10]; 5g a.i./10a): 10 (10: 100%) | Digitaria ciliaris herbicidal efficacy (growth inhibition level) ([10]; 10g a.i./10a): 10 (10: 100%)

CC=CCNc1c(C#N)cnn1-c1nn2c(c1Cl)CCCC2 (mixture of isomers) [Compound 12]
Echinochloa crus-galli herbicidal efficacy (growth inhibition level) ([1]; 1g a.i./10a): 9 (9: 90% to less than 100%) | Echinochloa crus-galli herbicidal efficacy (growth inhibition level) ([1]; 5g a.i./10a): 10 (10: 100%) | Monochoria vaginalis herbicidal efficacy (growth inhibition level) ([2]; 1g a.i./10a): 9 (9: 90% to less than 100%) | Monochoria vaginalis herbicidal efficacy (growth inhibition level) ([2]; 5g a.i./10a): 10 (10: 100%) | Scirpus juncoides herbicidal efficacy (growth inhibition level) ([3]; 1g a.i./10a): 8 (8: 80% to less than 90%) | Scirpus juncoides herbicidal efficacy (growth inhibition level) ([3]; 5g a.i./10a): 9 (9: 90% to less than 100%) | Amaranthus retroflexus herbicidal efficacy (growth inhibition level) ([5]; 5g a.i./10a): 10 (10: 100%) | Amaranthus retroflexus herbicidal efficacy (growth inhibition level) ([5]; 10g a.i./10a): 10 (10: 100%) | Chenopodium album herbicidal efficacy (growth inhibition level) ([6]; 5g a.i./10a): 10 (10: 100%) | Chenopodium album herbicidal efficacy (growth inhibition level) ([6]; 10g a.i./10a): 10 (10: 100%) | Digitaria ciliaris herbicidal efficacy (growth inhibition level) ([7]; 5g a.i./10a): 10 (10: 100%) | Digitaria ciliaris herbicidal efficacy (growth inhibition level) ([7]; 10g a.i./10a): 10 (10: 100%) | Amaranthus retroflexus herbicidal efficacy (growth inhibition level) ([8]; 5g a.i./10a): 10 (10: 100%) | Amaranthus retroflexus herbicidal efficacy (growth inhibition level) ([8]; 10g a.i./10a): 10 (10: 100%) | Chenopodium album herbicidal efficacy (growth inhibition level) ([9]; 5g a.i./10a): 10 (10: 100%) | Chenopodium album herbicidal efficacy (growth inhibition level) ([9]; 10g a.i./10a): 10 (10: 100%) | Digitaria ciliaris herbicidal efficacy (growth inhibition level) ([10]; 5g a.i./10a): 10 (10: 100%) | Digitaria ciliaris herbicidal efficacy (growth inhibition level) ([10]; 10g a.i./10a): 10 (10: 100%)

CC=CCN(C(=O)C(F)(F)F)c1c(C#N)cnn1-c1nn2c(c1Cl)CCCC2 (mixture of isomers) [Compound 24]
Echinochloa crus-galli herbicidal efficacy (growth inhibition level) ([1]; 1g a.i./10a): 9 (9: 90% to less than 100%) | Echinochloa crus-galli herbicidal efficacy (growth inhibition level) ([1]; 5g a.i./10a): 10 (10: 100%) | Monochoria vaginalis herbicidal efficacy (growth inhibition level) ([2]; 1g a.i./10a): 8 (8: 80% to less than 90%) | Monochoria vaginalis herbicidal efficacy (growth inhibition level) ([2]; 5g a.i./10a): 9 (9: 90% to less than 100%) | Scirpus juncoides herbicidal efficacy (growth inhibition level) ([3]; 1g a.i./10a): 8 (8: 80% to less than 90%) | Scirpus juncoides herbicidal efficacy (growth inhibition level) ([3]; 5g a.i./10a): 9 (9: 90% to less than 100%) | Amaranthus retroflexus herbicidal efficacy (growth inhibition level) ([5]; 5g a.i./10a): 10 (10: 100%) | Amaranthus retroflexus herbicidal efficacy (growth inhibition level) ([5]; 10g a.i./10a): 10 (10: 100%) | Chenopodium album herbicidal efficacy (growth inhibition level) ([6]; 5g a.i./10a): 10 (10: 100%) | Chenopodium album herbicidal efficacy (growth inhibition level) ([6]; 10g a.i./10a): 10 (10: 100%) | Digitaria ciliaris herbicidal efficacy (growth inhibition level) ([7]; 5g a.i./10a): 10 (10: 100%) | Digitaria ciliaris herbicidal efficacy (growth inhibition level) ([7]; 10g a.i./10a): 10 (10: 100%) | Amaranthus retroflexus herbicidal efficacy (growth inhibition level) ([8]; 5g a.i./10a): 10 (10: 100%) | Amaranthus retroflexus herbicidal efficacy (growth inhibition level) ([8]; 10g a.i./10a): 10 (10: 100%) | Chenopodium album herbicidal efficacy (growth inhibition level) ([9]; 5g a.i./10a): 10 (10: 100%) | Chenopodium album herbicidal efficacy (growth inhibition level) ([9]; 10g a.i./10a): 10 (10: 100%) | Digitaria ciliaris herbicidal efficacy (growth inhibition level) ([10]; 5g a.i./10a): 10 (10: 100%) | Digitaria ciliaris herbicidal efficacy (growth inhibition level) ([10]; 10g a.i./10a): 10 (10: 100%)

O=[N+]([O-])c1cnn(-c2nn3c(c2Cl)CCCC3)c1NC/C=C\Cl [Compound 32]
Echinochloa crus-galli herbicidal efficacy (growth inhibition level) ([1]; 1g a.i./10a): 8 (8: 80% to less than 90%) | Echinochloa crus-galli herbicidal efficacy (growth inhibition level) ([1]; 5g a.i./10a): 9 (9: 90% to less than 100%) | Monochoria vaginalis herbicidal efficacy (growth inhibition level) ([2]; 1g a.i./10a): 9 (9: 90% to less than 100%) | Monochoria vaginalis herbicidal efficacy (growth inhibition level) ([2]; 5g a.i./10a): 10 (10: 100%) | Scirpus juncoides herbicidal efficacy (growth inhibition level) ([3]; 1g a.i./10a): 8 (8: 80% to less than 90%) | Scirpus juncoides herbicidal efficacy (growth inhibition level) ([3]; 5g a.i./10a): 10 (10: 100%) | Amaranthus retroflexus herbicidal efficacy (growth inhibition level) ([5]; 5g a.i./10a): 10 (10: 100%) | Amaranthus retroflexus herbicidal efficacy (growth inhibition level) ([5]; 10g a.i./10a): 10 (10: 100%) | Chenopodium album herbicidal efficacy (growth inhibition level) ([6]; 5g a.i./10a): 10 (10: 100%) | Digitaria ciliaris herbicidal efficacy (growth inhibition level) ([7]; 5g a.i./10a): 10 (10: 100%) | Digitaria ciliaris herbicidal efficacy (growth inhibition level) ([7]; 10g a.i./10a): 10 (10: 100%) | Amaranthus retroflexus herbicidal efficacy (growth inhibition level) ([8]; 5g a.i./10a): 10 (10: 100%) | Amaranthus retroflexus herbicidal efficacy (growth inhibition level) ([8]; 10g a.i./10a): 10 (10: 100%) | Chenopodium album herbicidal efficacy (growth inhibition level) ([9]; 5g a.i./10a): 10 (10: 100%) | Chenopodium album herbicidal efficacy (growth inhibition level) ([9]; 10g a.i./10a): 10 (10: 100%) | Digitaria ciliaris herbicidal efficacy (growth inhibition level) ([10]; 5g a.i./10a): 10 (10: 100%) | Digitaria ciliaris herbicidal efficacy (growth inhibition level) ([10]; 10g a.i./10a): 10 (10: 100%)
